ChEMBL document CHEMBL1833852, “Design, synthesis, and X-ray crystallographic analysis of a novel class of HIV-1 protease inhibitors” (J Med Chem, 2011)
Active and inactive are the calls of the source. The calls are words filed in the database; no cut-off is given here.

molecular target: Protease (Human immunodeficiency virus 1) (UniProt Q9YQ12); test: (§1) Inhibition of Human immunodeficiency virus 1 protease activity after 60 mins by HPLC analysis
Sequence (Q9YQ12 as listed by the source): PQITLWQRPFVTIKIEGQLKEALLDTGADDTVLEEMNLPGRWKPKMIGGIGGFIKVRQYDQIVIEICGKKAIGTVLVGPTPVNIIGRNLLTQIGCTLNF

Question: With `O=C1N[C@@H](Cc2ccccc2)[C@@H](CN2CCCc3ccccc3S2(=O)=O)O1` as the compound, how does the inhibition read?
Answer: Its inhibition is “inactive”.

molecular target: Protease (Human immunodeficiency virus 1, UniProt Q9YQ12); test: as §1
Sequence (Q9YQ12 whole entry): as the sequence (Q9YQ12 as listed by the source) above

Question: For `C[C@H]1Cc2cc(F)ccc2S(=O)(=O)N(CC(O)C(Cc2ccccc2)NC(=O)[C@@H]2CN(c3ccccc3)C(=O)O2)C1` (single isomer, unassigned), which Ki is on record?
Answer: Its Ki is 30 nM.

Question: For `C[C@H]1Cc2ccccc2S(=O)(=O)N(CC(O)C(Cc2ccccc2)NC(=O)OC(C)(C)C)C1` (single isomer, unassigned), which Ki is on record?
Answer: The Ki was 29 nM.

Question: For `COc1ccc2c(c1)C[C@H](C)CN(C[C@@H](O)[C@H](Cc1ccccc1)NC(=O)OC(C)(C)C)S2(=O)=O`, which Ki is on record?
Answer: The Ki was 19 nM.

Question: With `CC(C)(C)OC(=O)N[C@@H](Cc1ccccc1)[C@H](O)CN1CCCc2ccccc2S1(=O)=O` as the compound, how does the Ki read?
Answer: The Ki was 470 nM.

Question: For `C=CCOC(=O)N[C@@H](Cc1ccccc1)[C@H](O)CN1C[C@@H](C)Cc2ccccc2S1(=O)=O`, which Ki is on record?
Answer: Its Ki is 27 nM.

Question: How did the Ki turn out when `C[C@H]1Cc2cc(C(F)(F)F)ccc2S(=O)(=O)N(C[C@@H](O)[C@H](Cc2ccccc2)NC(=O)OC(C)(C)C)C1` was run?
Answer: The Ki was 186 nM.

Question: With `C[C@@H]1Cc2ccccc2S(=O)(=O)N(CC(O)C(Cc2ccccc2)NC(=O)OC(C)(C)C)C1` (single isomer, unassigned) as the compound, how does the Ki read?
Answer: Its Ki is 1000 nM.

Question: `C[C@H]1Cc2ccc(C(F)(F)F)cc2S(=O)(=O)N(C[C@@H](O)[C@H](Cc2ccccc2)NC(=O)OC(C)(C)C)C1` was tested. Which Ki did it give?
Answer: Its Ki is 100 nM.

Question: `C[C@H]1Cc2ccccc2S(=O)(=O)N(CC(O)C(Cc2ccccc2)NC(=O)Oc2ccccc2)C1` (single isomer, unassigned) was tested. Which Ki did it give?
Answer: The Ki was 350 nM.

Question: How did the Ki turn out when `CCOC(=O)NC(Cc1ccccc1)C(O)CN1C[C@@H](C)Cc2ccccc2S1(=O)=O` (single isomer, unassigned) was run?
Answer: The Ki was 34 nM.
